Consider nine compounds from paper PMC9687610, “Adenosine-Mimicking Derivatives of 3-Aminopyrazine-2-Carboxamide: Towards Inhibitors of Prolyl-tRNA Synthetase with Antimycobacterial Activity” (Biomolecules, 2022).

The subject of test [1] is Mtb MATI (multidrug-resistant clinical isolate). In words: microbe, parasite or virus in culture. Format: cell-based, Mycobacterium tuberculosis. The note with it: for MIC: Mycobacterium tuberculosis, read-out: Mtb MATI MIC; for Mtb MATI susceptibility class (R/S): MDR clinical isolate.
Test [2] has as its system Mtb IZAK (multidrug-resistant clinical isolate). In words: microbe, parasite or virus in culture. The class given is cell-based, Mycobacterium tuberculosis. The settings on record: for MIC: Mycobacterium tuberculosis, read-out: Mtb IZAK MIC; for Mtb IZAK susceptibility class (R/S): MDR clinical isolate.
The subject of another test is Mtb laboratory ID MATI. The note with it: MDR clinical isolate; external resistance profiling; cited from earlier work.
The next test has as its system Mtb laboratory ID IZAK. The note with it: MDR clinical isolate; external resistance profiling; cited from earlier work.

Converted amounts (≈) assume the structure as drawn.

Regarding `Cc1ccc(C(=O)Nc2nccnc2C(N)=O)cc1` [Compound 4], the MIC in test [1] and in test [2] was 12.5 µg/mL (≈ 48.8 µM) each time.
Consider `NC(=O)c1nccnc1NC(=O)c1ccc(F)cc1` [Compound 12], for which the MIC in test [1] and in test [2] was 100 µg/mL (≈ 384 µM) each time.
As to `NC(=O)c1nccnc1NC(=O)c1ccc(Cl)cc1` [Compound 15], the MIC in test [1] and in test [2] was 12.5 µg/mL (≈ 45.2 µM) in each case.
Take `NC(=O)c1nccnc1NC(=O)c1ccc(Br)cc1` [Compound 18]: the MIC in test [1] and in test [2] was 12.5 µg/mL (≈ 38.9 µM) in each case.
Take `CC[C@@H](CO)NCCN[C@@H](CC)CO` [EMB, ethambutol]: the “Mtb MATI MIC, value from external resistance profiling (*)” value (“Mtb MATI MIC, value” for short) in the test with Mtb laboratory ID MATI is listed as 0.5 µg/mL. Also, in test [1], the “Mtb MATI susceptibility class (R/S)” value was “S” and the MIC worked out at 0.39 µg/mL (≈ 1.91 µM). In addition, in test [2], the “Mtb IZAK susceptibility class (R/S)” value was “S” and the MIC turned out to be 0.39 µg/mL (≈ 1.91 µM). The “Mtb IZAK MIC, value from external resistance profiling (*)” value (from here on “Mtb IZAK MIC, value”) with Mtb laboratory ID IZAK is 0.5 µg/mL.
In the case of `NNC(=O)c1ccncc1` [INH, isoniazid], in test [1], the “Mtb MATI susceptibility class (R/S)” value is listed as “R” and the MIC is greater than 8 µg/mL. In addition, in test [2], the “Mtb IZAK susceptibility class (R/S)” value is reported as “R” and the MIC amounted to 4 µg/mL (≈ 29.2 µM).
Consider `NC(=O)c1cnccn1` [PZA, pyrazinamide], for which the “Mtb MATI MIC, value” value with Mtb laboratory ID MATI is reported as greater than 128 µg/mL. The “Mtb MATI susceptibility class (R/S)” value in test [1] is “R”. Also, in test [2], the “Mtb IZAK susceptibility class (R/S)” value was “R”. Moreover, in the test with Mtb laboratory ID IZAK, the “Mtb IZAK MIC, value” value is greater than 16 µg/mL.
`CO[C@H]1/C=C/O[C@@]2(C)Oc3c(C)c(O)c4c(O)c(c(/C=N/N5CCN(C)CC5)c(O)c4c3C2=O)NC(=O)/C(C)=C\C=C\[C@H](C)[C@H](O)[C@@H](C)[C@@H](O)[C@@H](C)[C@H](OC(C)=O)[C@@H]1C` [RIF, rifampicin]: the “Mtb MATI MIC, value” value with Mtb laboratory ID MATI is on record as greater than 8 µg/mL. In addition, the “Mtb MATI susceptibility class (R/S)” value in test [1] was “R”. In test [2], the “Mtb IZAK susceptibility class (R/S)” value was “R”. The “Mtb IZAK MIC, value” value with Mtb laboratory ID IZAK is reported as greater than 8 µg/mL.
As for `[H]/N=C(/N)N[C@H]1[C@H](O)[C@@H](O)[C@H](O[C@@H]2O[C@@H](C)[C@](O)(C=O)[C@H]2O[C@@H]2O[C@@H](CO)[C@H](O)[C@@H](O)[C@@H]2NC)[C@@H](N/C(N)=N\[H])[C@@H]1O` [STM, streptomycin], the “Mtb MATI MIC, value” value in the test on Mtb laboratory ID MATI is greater than 16 µg/mL. Moreover, the “Mtb MATI susceptibility class (R/S)” value in test [1] was “R”. In addition, the “Mtb IZAK susceptibility class (R/S)” value in test [2] is listed as “R”. Also, the “Mtb IZAK MIC, value” value in the test on Mtb laboratory ID IZAK is 4 µg/mL.
